Values joined by “and” are separate entries in the source; they are usually repeats but may differ in a detail not shown here. Identical values can stand only once. Like-named read-outs stand apart in the source and are kept apart here.
Columns and labels:
[1] = tested on: p53 R213* UGA premature termination codon in HDQ-P1 mammary carcinoma cells; assay: HDQ-p53UGA213 readthrough assay (full-length p53, MSD immunoassay); type: cell-based, human; settings: for HDQ-p53UGA213 (Maxfold): maximum readthrough activity above background
Method: We utilized HDQ-P1 mammary carcinoma cells, which are homozygous for R213*, a UGA premature termination codon in the gene for the tumor suppressor protein p53 [30]. […] Western blot hybridization and Meso Scale Discovery (MSD) immunoassay detection of p53 were done as previously described. […] Cells (45K per well) were grown in 96-well plates and treated with compounds for 24 hours. […] Cells were lysed with 60 μl per well of lysis buffer (20 mM Tris-HCL, pH 7.5, 1 mM EGTA, 1 mM EDTA,150 mM Nacl, 0.5% Triton X100) for one hour at room temperature and 30 μl of lysate per well were transferred to the coated plate and incubated overnight at 4 °C. […] Plates were then washed three times with PBS-T and 30 μl of 0.25 μ/ml goat anti-rabbit IgG-Sulfo-tag antibody (MSD) in TBS-C was added and incubated for 1 hour at room temperature. Plates were then washed three times with PBS-T and 150 μl read buffer (MSD) was added. Plates were read immediately in a SECTOR S 600 (MSD).

[2] = tested on: tGFP-CFTR542X-HA-HIS construct (codon 542 UGA) in 293H cells; assay: tGFP-542X readthrough assay (HA-HIS MSD immunoassay); type: cell-based, human
[3] = tested on: fLuc mRNA harboring a UGA nonsense mutation at codon 190 (fLuc-190-NS); type: biochemical, rabbit
Excerpt: ThefLuc-190-NS assay is an in vitro rabbit reticulocyte lysate translation of an fLuc mRNA harboring a UGA nonsense mutation at codon 190 (fLuc-190-NS). It is believed that positively charged aminoglycosides are poorly taken up by cells, and we used this cell-free readthrough assay to eliminate the potential variable of cell uptake when measuring readthrough potency. […] Readthrough protein was detected using a HA-HIS MSD immunoassay described previously.
This cell-free translation assay used synthetic LUC mRNAs harboring an EMCV IRES and LUC codon 190-UGA premature stop codon prepared using the MegaScript in vitro transcription kit (Ambion). Translation reactions were done with the Rabbit Reticulocyte Lysate System (Promega) with 100 ng RNA and increasing concentrations of aminoglycosides. The amount of luminescence produced was determined after approximately 4 hours using a Viewlux CCD imager (Perkin-Elmer). Fold suppression over background was calculated as (aminoglycoside light units/PBS light units).

[4] = Cytotoxicity in stimulated PBMCs (CellTitre-Glo ATP); settings: human
Excerpt: (§1) When considering compounds for potential readthrough therapy it is important to monitor cellular and animal safety. In order to determine the most promising compounds to further evaluate in in vivo safety, we measured cytotoxicity in two different cell types. We used activated human peripheral blood mononuclear cells (PBMCs) (Table 2 and Fig 2D and 2E). PBMCs are a primary cell that when activated with phytohaemagglutinin (PHA) expand quickly and are commonly used as an in vitro surrogate for rapidly growing cells in the human body to evaluate cytotoxicity. Prior to advancing compounds into human studies, safety evaluation in rodents is performed. As an in vitro surrogate for rodent toxicity, we used primary mouse myoblasts.
(§2) Frozen human Peripheral Blood Mononuclear Cells (PBMCs) were obtained from […] (Alameda, CA, Cat# PB003F) from a single donor. […] Plates were incubated at 37°C with 5% CO2 for 4 hours prior to compound treatment. Compounds were serially diluted and added to the plates. Plates were incubated at 37°C, 5% CO2 incubator, for 72 hours prior to determinations of ATP levels. Cell viability was determined using a chemiluminescent assay to monitor adenosine triphosphate (ATP) levels in live cells (CellTitre-Glo; CTG; Promega, Cat#G7571). Methods were performed per the manufacturer’s instructions.

[5] = tested on: activated human peripheral blood mononuclear cells (PBMCs); assay: as above; settings: read-out: Stimulated PBMC CC50, individual determinations (S1 File)
Excerpt: as §1, §2

[6] = Cytotoxicity in myoblasts; settings: mouse, primary mouse myoblasts
Excerpt: as §1

[7] = Neuromast toxicity assay (DASPEI staining); settings: zebrafish, zebrafish embryos 5 dpf, neuromasts (hair cells), other: embryos exposed to the drug in 24-well plates
Method: All neuromast cytotoxicity assays were done at Biobide–BBD Biophenix SL (Gipuzkoa, Spain). […] Compounds were tested at 5 doses. After 24 hours of exposure embryos were incubated in DASPEI (2-(4-(dimethylamino)styryl) -N-Ethylpyridinium Iodide) for neuromast staining. Images of each embryo were taken and neuromasts counted. A compound was classified as ototoxic when the number of neuromasts in the treated group was less than that in the untreated control group (One Way ANOVA, multiple comparisons vs. vehicle).

[8] = concentration required to double the level of full-length p53 protein, average ± SD, at least three experiments, highest concentration 300 μM
[9] = individual experiments (S1 File)
[10] = 293H cells, 24 hours, average ± SD
[11] = individual experiments (S1 File), unit not printed for EC5X (EC2X of the sheet in uM)
[12] = maximum readthrough above background, average ± SD
[13] = AVERAGE (S1 File), unit not given for EC5X
[14] = Neuromast CC50, AVERAGE (S1 File)
[15] = Neuromast CC50, individual determinations (S1 File)
[16] = individual experiments (S1 File), listed as PTC-0302307 (C1)
[17] = individual experiments (S1 File), unit not printed for EC5X (EC2X of the sheet in uM), listed as PTC-0302307 (C1)

SMILES	HDQ-p53UGA213 EC2X ([1]; AVERAGE (S1 File)) [µM]	HDQ-p53UGA213 max ([1]; AVERAGE (S1 File))	HDQ-p53UGA213 EC2X [1, 8] [µM]	HDQ-p53UGA213 (Maxfold) ([1]; average ± SD) [fold]	tGFP-542X EC2X [2, 10] [µM]	tGFP-542X EC2X ([2]; AVERAGE (S1 File)) [µM]	tGFP-542X Maxfold ([2]; AVERAGE (S1 File))	tGFP-542X Maxfold [2, 12] [fold]	fLuc-190-NS EC2X ([3]; AVERAGE (S1 File)) [µM]	fLuc-190-NS MaxFold ([3]; AVERAGE (S1 File))	fLuc-190-NS EC5X [3, 13]	fLuc-190-NS EC2X ([3]; cell-free, average ± SD) [µM]	fLuc-190-NS MaxFold ([3]; cell-free, average ± SD) [fold]	CC50 at 24 h [7, 14] [µM]	CC50 at 24 h [7, 15] [µM]	also measured
CN[C@@H]1[C@@H](O)[C@@H](O[C@@H]2[C@@H](O)[C@H](O[C@H]3O[C@H](CO)[C@@H](O)[C@H](O)[C@H]3N)[C@@H](N)C[C@H]2N)OC[C@H]1O [Gentamicin A, gentamicin A]	585.5	2.7	586 ± 100	3 ± 0.4	385 ± 123	385.2	3.8	4 ± 0.4	0.45	6.7	2.0	0.45 ± 0.015	6.7 ± 0.4	17	17	HDQ-p53UGA213 EC2X [1, 9]: 658.30 µM and 626.86 µM and 471.32 µM; HDQ-p53UGA213 max ([1]; individual experiments (S1 File), max fold): 2.50 and 3.24 and 2.45; tGFP-542X EC2X [2, 9]: 490.42 µM and 415.81 µM and 249.27 µM; tGFP-542X Maxfold [2, 9]: 3.32 and 4.14 and 3.99; tGFP-542X EC5X [2, 11]: >1000; fLuc-190-NS EC2X [3, 9]: 0.44 µM and 0.47 µM and 0.45 µM; fLuc-190-NS MaxFold [3, 9]: 6.38 and 6.62 and 7.20; fLuc-190-NS EC5X [3, 11]: 1.95 and 2.14; CC50 at 72 h ([4]; Stimulated PBMC CC50, AVERAGE (S1 File)): 3620 µM; CC50 [5]: > 1250 µM and 3620 µM; CC50 ([6]; Myoblast CC50, AVERAGE (S1 File)): 6210 µM; CC50 ([6]; Myoblast CC50, individual determinations (S1 File)): 6210 µM
CN[C@@H]1[C@@H](O)[C@@H](O[C@@H]2[C@@H](O)[C@H](O[C@H]3O[C@H]([C@@H](C)NC)CC[C@H]3N)[C@@H](N)C[C@H]2N)OC[C@]1(C)O [Gentamicin C1, gentamicin C1]	311.4	4.8	311 ± 321	5 ± 3	439 ± 192	439.1	3.4	3 ± 2	1.1	18.9	2.6	1.061 ± 0.262	19 ± 2	9.4	9.4	HDQ-p53UGA213 EC2X ([1]; concentration required to double the level of full-length p53 protein, average ± SD, at least three experiments, highest concentration 300 μM, listed as C1): triple digit; HDQ-p53UGA213 EC2X [1, 16]: 74.03 µM and 776.89 µM and 269.47 µM and 125.28 µM; HDQ-p53UGA213 max ([1]; individual experiments (S1 File), max fold, listed as PTC-0302307 (C1)): 6.40 and 2.10 and 2.50 and 8.00; tGFP-542X EC5X [2, 13]: 825.7; tGFP-542X EC2X [2, 16]: 303 µM and 575 µM and >1000 µM; tGFP-542X Maxfold [2, 16]: 6 and 2 and 1.70; tGFP-542X EC5X [2, 17]: 826 and >1000; fLuc-190-NS EC2X [3, 16]: 1.36 µM and 0.90 µM and 0.92 µM; fLuc-190-NS MaxFold [3, 16]: 18.25 and 17.61 and 20.78; fLuc-190-NS EC5X [3, 17]: 2.89 and 2.68 and 2.37; CC50 at 72 h ([4]; Stimulated PBMC CC50, individual determinations (S1 File)): > 1250 µM; CC50 ([5]; listed as PTC-0302307 (C1)): > 1000 µM

From article PMC6201930 (PLoS ONE, 2018)
